Measurements: patent publication US20160187321A1, “INDUCED EXPRESSION OF PROTEINS IN INSECT CELLS” (UNIVERSITY OF FLORIDA RESEARCH FOUNDATION, INC., priority 2013, published 2016)
“Also recorded” adds a separate entry of the source. Where two headings read alike, the source gives them in different places.

Columns and labels:
AgKv2 K+ channels = assay: Whole cell patch clamp of AgKv2 K+ channels expressed in HEK293 cells; assay type: cell-based, Anopheles gambiae
[1] = system: Kv2 delayed-rectifier potassium channels (AgKv2); assay: Whole cell patch clamp of potassium channel currents in Sua1B cells; assay type: cell-based, Anopheles gambiae
Description: (§1) Cell Culture. […] Cells were passed every 3-5 days.
(§2) Differentiation with 20-Hydroxyecdysone. […] Controls had 0.1% DMSO.

potassium channels = assay: Thallium flux (FluxOR) fluorescence assay of potassium channel function in Sua1B cells; assay type: cell-based, Anopheles gambiae
Experimental: as §2
Thallium Flux Measurements of Potassium Channel Pharmacology. The FluxOR™ potassium channel assay (Molecular Probes, Inc., Eugene, Oreg., USA) was performed as outlined in the product information sheet and performed on the SyntaxMax plate reader (BioTek, Winooski, Vt., USA).

[2] = system: nicotinic acetylcholine receptors; assay: Imidacloprid-induced calcium fluorescence in Sf21 cells; assay type: cell-based, lepidopteran
Experimental: (§3) FIGS. 8A-8C. […] Imidacloprid-induced calcium fluorescence is blocked by 100 μM mecamylamine (MML). […] FIG. 8B: Response of a patch clamped Sf21 cell to imidacloprid treatment after 6 hours in 20-HE. […] The current voltage plot was generated by subtracting TEA-insensitive current from total current at each voltage.
FIG. 9. […] Expression of IMI-induced fluorescence is the same, with even lower vehicle background with caffeine, at least in this particular experiment.

[3] = system: outward potassium currents similar to Kv2 currents; assay: Patch clamp of potassium currents in Sf21 cells; assay type: cell-based, lepidopteran; settings: 3 hours treatment
Experimental: as §3

[4] = system: Kv2 delayed-rectifier K+ channel (AgKv2), native channel current in Sua1B cells; settings: read-out: IC50 (TEA inhibition of K+ current), FIG. 5F, whole cell patch clamp, holding potential −80 mV, steps up to +100 mV, TEA 0.3-30 mM traces, 20-HE added 3 hours before experiments (general method)
Description: as §1
(§4) Differentiation with 20-Hydroxyecdysone.

[5] = system: Anopheles gambiae Kv2 (AgKv2) channel (Accession # XM_315955.4) expressed in HEK293 cells; settings: read-out: EC50 (TEA inhibition of K+ current); FIG. 6E; HEK293 cells with AgKv2 gene, CMV promoter, tetracycline-induced (w/ TC); whole cell patch clamp, holding potential −80 mV, steps up to +100 mV
muscarinic-type receptor = assay: Calcium fluorescence response to muscarinic agonists in Sua1B cells; assay type: cell-based, Anopheles gambiae
Description: as §1, §4

[6] = system: nicotinic acetylcholine receptors; assay: Imidacloprid-induced calcium fluorescence in Sua1B cells; assay type: cell-based, Anopheles gambiae
[7] = system: nicotinic acetylcholine receptors; assay: Patch clamp of Sf21 cell response to imidacloprid; assay type: cell-based, lepidopteran; settings: Sf21 cell after 6 hours in 20-HE
Experimental: as §3

Nc1ccncc1 [4-AP, 4-aminopyridine]
inhibition of AgKv2 K+ current (AgKv2 K+ channels; HEK293 cells expressing the AgKv2 gene): inhibited | inhibition of Kv2 (AgKv2) K+ currents ([1]; 20-HE-treated Sua1B cells): inhibited AgKv2 currents | inhibition of Kv2 (AgKv2) K+ currents ([1]; 20-HE-treated Sua1B cells, listed as 4-aminopyridine): inhibited | effect on thallium ion uptake (potassium channels; Sua1B cells induced by 20-HE): blocking action

CC(C)(O)CC[C@@H](O)[C@](C)(O)[C@H]1CC[C@@]2(O)C3=CC(=O)[C@@H]4C[C@@H](O)[C@@H](O)C[C@]4(C)[C@H]3CC[C@]12C [20-HE, 20-hydroxyecdysone]
Maximal increase of AgKv2 channel expression (current) ([1]; 20-HE treatment of Sua1B cells): 2000 pA | time after treatment at which Kv2 delayed-rectifier potassium channels are expressed ([1]; Sua1B cells, whole cell patch clamp): ≤ 3 h | expression of nicotinic acetylcholine receptors ([2]; Sf21 cells, 6 hours of exposure): enhances expression | expression of potassium currents [3]: expressing outward potassium currents | K+ channel expression (thallium fluorescence) (potassium channels; Sua1B cells, 42 μM 20-HE, time dependence): detectable ion channel expression in hours

CC[N+](CC)(CC)CC [TEA, tetraethylammonium]
IC50 [4]: 8 mM | EC50 [5]: 1.3 mM | inhibition of AgKv2 K+ current (AgKv2 K+ channels): inhibited; also recorded: Inhibition of potassium current | inhibition of Kv2 (AgKv2) K+ currents [1]: inhibited AgKv2 currents; also recorded: Inhibition of K^+ current

CC(C[N+](C)(C)C)OC(N)=O (centres unmarked) [bethanechol]
fold less potent response in the absence of insect hormone (muscarinic-type receptor): ~200 fold | EC50 (muscarinic-type receptor; read-out: EC50 (concentration where the response is half maximal), calcium fluorescence): 0.25 µM | EC50 (muscarinic-type receptor; read-out: EC50, calcium fluorescence): 48 µM

Cn1c(=O)c2c(ncn2C)n(C)c1=O [caffeine]
expression of imidacloprid sensitivity (IMI-induced fluorescence) ([2]; Sf21 cells, 6 hours exposure, 10 μM imidacloprid): approximately the same effect as caffeine and 20-HE

O=[N+]([O-])NC1=NCCN1Cc1ccc(Cl)nc1 [imidacloprid]
calcium fluorescence versus controls ([6]; Sua1B cells in the absence of 20-HE): no imidacloprid effect | calcium fluorescence versus controls ([6]; Sua1B cells, 3 hours of 20-HE treatment): increases calcium fluorescence above controls | current response of patch clamped cell [7]: inward current | calcium fluorescence compared to matched controls ([2]; 10 μM, Sf21 cells, 6 hours of exposure to 20-HE): greater imidacloprid-induced calcium fluorescence | calcium fluorescence ([2]; Sf21 cells without 20-HE): reduced effect

CNC1(C)C2CCC(C2)C1(C)C (centres unmarked) [mecamylamine]
block of imidacloprid-increased calcium fluorescence ([6]; 100 μM, Sua1B cells, 3 hours of 20-HE treatment): blocked | block of imidacloprid-induced calcium fluorescence ([2]; 100 μM, Sf21 cells, 6 hours 20-HE): blocked | reduction of imidacloprid-induced calcium fluorescence ([2]; Sf21 cells without 20-HE): variable and not statistically significant reduction

NC1=N[C@H](O)[C@H]2[C@H]3O[C@]4(O)O[C@@H]([C@@H](O)[C@@]2(N1)[C@@H]4O)[C@]3(O)CO [tetrodotoxin]
effect on thallium ion uptake (potassium channels): no effect
